{"source": "patent US20110294729A1", "about": "“Novel Insulin Analogues” (Novo Nordisk A/S, priority 2008, published 2011)", "key": {"[1]": {"conditions": "according to WO 90/01038; cited from earlier work"}, "human IR-A": {"target": "T1, human IR-A (Homo sapiens, UniProt P06213)", "T1 construct": "solubilized human IR (holoreceptor) semipurified by wheat germ agglutinin purification; made in house; host or cells: baby hamster kidney (BHK) cells, stably transfected (pZem vector)", "T1 sequence (P06213 28-746 isoform P06213-2 limits assumed)": "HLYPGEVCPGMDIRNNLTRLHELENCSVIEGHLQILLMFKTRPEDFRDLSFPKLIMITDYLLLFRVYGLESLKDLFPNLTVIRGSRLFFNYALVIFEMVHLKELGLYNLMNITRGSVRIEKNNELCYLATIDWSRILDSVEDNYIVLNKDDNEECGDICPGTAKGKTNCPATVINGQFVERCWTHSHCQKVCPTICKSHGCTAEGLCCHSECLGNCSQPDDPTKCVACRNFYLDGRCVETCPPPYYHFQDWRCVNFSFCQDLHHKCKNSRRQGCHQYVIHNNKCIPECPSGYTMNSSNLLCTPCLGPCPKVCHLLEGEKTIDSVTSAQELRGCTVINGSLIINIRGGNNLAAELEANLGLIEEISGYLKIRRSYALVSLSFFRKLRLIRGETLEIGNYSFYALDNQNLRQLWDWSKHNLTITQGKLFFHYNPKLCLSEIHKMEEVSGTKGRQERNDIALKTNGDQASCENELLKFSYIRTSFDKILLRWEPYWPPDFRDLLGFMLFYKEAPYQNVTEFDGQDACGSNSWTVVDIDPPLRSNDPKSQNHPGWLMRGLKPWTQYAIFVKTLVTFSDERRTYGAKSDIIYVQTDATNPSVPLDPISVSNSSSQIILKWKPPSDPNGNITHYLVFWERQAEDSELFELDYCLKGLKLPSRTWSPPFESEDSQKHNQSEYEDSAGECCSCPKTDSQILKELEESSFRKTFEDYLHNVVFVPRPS", "T1 sequence (P06213 763-1382 partner limits assumed)": "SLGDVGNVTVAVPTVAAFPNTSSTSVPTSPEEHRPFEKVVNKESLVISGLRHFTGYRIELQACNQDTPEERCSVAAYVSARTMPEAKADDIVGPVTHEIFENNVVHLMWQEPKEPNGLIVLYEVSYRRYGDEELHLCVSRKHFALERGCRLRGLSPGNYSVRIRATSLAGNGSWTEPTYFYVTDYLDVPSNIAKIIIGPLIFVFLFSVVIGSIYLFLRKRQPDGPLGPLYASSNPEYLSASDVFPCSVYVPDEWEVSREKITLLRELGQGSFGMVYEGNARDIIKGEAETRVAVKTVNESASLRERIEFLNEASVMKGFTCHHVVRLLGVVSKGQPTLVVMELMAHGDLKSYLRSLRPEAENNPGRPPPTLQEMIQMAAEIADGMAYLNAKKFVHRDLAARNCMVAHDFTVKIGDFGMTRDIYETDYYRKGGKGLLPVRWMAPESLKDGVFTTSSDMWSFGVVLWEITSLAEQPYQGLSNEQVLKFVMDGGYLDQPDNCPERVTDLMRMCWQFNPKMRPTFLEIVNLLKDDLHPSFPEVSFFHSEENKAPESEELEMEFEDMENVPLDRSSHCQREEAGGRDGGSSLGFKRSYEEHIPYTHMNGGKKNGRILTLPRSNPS", "experiment": "Insulin receptor binding assay (SPA, solubilised receptor), hIR-A", "conditions": "hIR-A affinity relative to human insulin; analogue directly in yeast supernatant; SPA competition with [125I]A14Tyr-labelled insulin", "experimental": "(§1) Competition binding experiments were performed in 96-well plates (polystyrene Optiplate-96, PerkinElmer) on an Eppendorf epMotion 5075 robot using solubilized human IR (holoreceptor) semipurified by wheat germ agglutinin purification from baby hamster kidney (BHK) cells, which were stably transfected with the pZem vector containing the human IR-A or IR-B insert."}, "human IR-B": {"target": "T2, human IR-B (Homo sapiens, UniProt P06213)", "T2 construct": "solubilized human IR (holoreceptor) semipurified by wheat germ agglutinin purification; made in house; host or cells: baby hamster kidney (BHK) cells, stably transfected (pZem vector)", "T2 sequence (P06213 28-758 limits assumed)": "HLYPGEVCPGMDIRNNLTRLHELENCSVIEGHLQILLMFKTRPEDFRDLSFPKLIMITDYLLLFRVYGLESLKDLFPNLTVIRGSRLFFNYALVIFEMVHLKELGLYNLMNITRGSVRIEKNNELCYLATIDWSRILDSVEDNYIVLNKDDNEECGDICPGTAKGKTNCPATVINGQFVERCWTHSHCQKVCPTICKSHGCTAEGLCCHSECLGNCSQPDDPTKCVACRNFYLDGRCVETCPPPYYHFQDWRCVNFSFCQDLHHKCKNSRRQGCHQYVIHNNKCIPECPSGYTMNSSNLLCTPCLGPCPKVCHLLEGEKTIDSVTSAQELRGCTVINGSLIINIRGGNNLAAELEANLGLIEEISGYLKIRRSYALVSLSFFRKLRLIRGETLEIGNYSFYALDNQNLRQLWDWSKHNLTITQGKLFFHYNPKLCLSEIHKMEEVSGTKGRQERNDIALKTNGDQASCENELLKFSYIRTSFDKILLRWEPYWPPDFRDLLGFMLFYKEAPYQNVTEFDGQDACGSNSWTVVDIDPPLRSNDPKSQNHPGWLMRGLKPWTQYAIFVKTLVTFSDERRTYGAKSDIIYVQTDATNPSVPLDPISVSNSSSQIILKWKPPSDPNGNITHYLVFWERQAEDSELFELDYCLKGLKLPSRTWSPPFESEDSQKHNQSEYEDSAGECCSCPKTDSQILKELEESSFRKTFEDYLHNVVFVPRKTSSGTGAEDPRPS", "T2 sequence (P06213 763-1382 partner limits assumed)": "as the sequence (P06213 763-1382 partner limits assumed) above", "experiment": "Insulin receptor binding assay (SPA, solubilised receptor), hIR-B", "experimental": "as §1"}, "[2]": {"tested_on": "insulin receptor A-isoform and B-isoform", "conditions": "cited from earlier work"}}}
{"substance": "His^B25 human insulin B30 amide", "values": [{"measurement": "biological activity", "setting": "[1]", "value": "high biological activity"}]}
{"substance": "His^B25, Asp^B28, desB30 human insulin", "values": [{"measurement": "biological activity", "setting": "[1]", "value": "high biological activity"}]}
{"substance": "[A8H, B25H, B27E, desB30] human insulin [Example 4]", "values": [{"measurement": "hIR-A [% of HI]", "setting": "human IR-A", "value": "67 ± 3 % of HI"}, {"measurement": "Ratio B/A", "setting": "human IR-B; Example 8 table, ratio of relative hIR-B affinity to relative hIR-A affinity", "value": 2.1}, {"measurement": "hIR-B [% of HI] (%)", "setting": "human IR-B; hIR-B affinity relative to human insulin, analogue directly in yeast supernatant, SPA competition with [125I]A14Tyr-labelled insulin", "value": "140 ± 5 % of HI"}]}
{"substance": "IGF-II", "values": [{"measurement": "affinity for IR-A versus IR-B", "setting": "[2]; higher affinity for IR-A than for IR-B", "value": "40-50 fold"}]}
{"substance": "Human insulin", "values": [{"measurement": "affinity for insulin receptor A-isoform versus B-isoform (in words)", "setting": "[2]; EMBO Journal 9 (1990), 2409-13", "value": "slightly higher affinity for the insulin receptor A-isoform than for the B-isoform"}]}
{"substance": "His^B25 human insulin", "values": [{"measurement": "biological activity", "setting": "[1]", "value": "high biological activity"}]}
